From the NIST ThermoML archive (doi:10.1021/je060271a)

Conditions: Liquid, Vibrating tube method

CCCCCCCC(=O)OCC(COC(=O)CCCCCCC)(COC(=O)CCCCCCC)COC(=O)CCCCCCC [pentaerythritol tetraoctanoate]
Conditions | mass density [kg/m3]
283.15 K, 29618 kPa | 986.1
283.15 K, 29659 kPa | 986
283.15 K, 29698 kPa | 986.2
283.15 K, 29736 kPa | 986.1
283.15 K, 29782 kPa | 986.2
283.15 K, 29821 kPa | 986.2
283.15 K, 29859 kPa | 986.3
283.15 K, 29906 kPa | 986.3
283.15 K, 29946 kPa | 986.3
283.15 K, 29992 kPa | 986.4
283.15 K, 30032 kPa | 986.4
283.15 K, 30071 kPa | 986.3
283.15 K, 30118 kPa | 986.4
283.15 K, 30158 kPa | 986.4
283.15 K, 30201 kPa | 986.4
283.15 K, 30242 kPa | 986.5
283.15 K, 30289 kPa | 986.4
283.15 K, 30330 kPa | 986.5
283.15 K, 30370 kPa | 986.4
283.15 K, 30418 kPa | 986.5
283.15 K, 30459 kPa | 986.5
283.15 K, 30500 kPa | 986.6
283.15 K, 30549 kPa | 986.6
283.15 K, 30590 kPa | 986.6
283.15 K, 30631 kPa | 986.6
283.15 K, 30673 kPa | 986.6
283.15 K, 30724 kPa | 986.6
283.15 K, 30766 kPa | 986.7
283.15 K, 30808 kPa | 986.8
283.15 K, 30850 kPa | 986.6
283.15 K, 30900 kPa | 986.7
283.15 K, 30942 kPa | 986.8
283.15 K, 30985 kPa | 986.9
283.15 K, 31036 kPa | 986.8
283.15 K, 31079 kPa | 986.8
283.15 K, 31123 kPa | 986.8
283.15 K, 31174 kPa | 986.8
283.15 K, 31217 kPa | 986.9
283.15 K, 31260 kPa | 986.9
283.15 K, 31312 kPa | 987
283.15 K, 31356 kPa | 987.1
283.15 K, 31399 kPa | 987
283.15 K, 31451 kPa | 987.1
283.15 K, 31495 kPa | 987.1
283.15 K, 31539 kPa | 987
283.15 K, 31584 kPa | 987
283.15 K, 31637 kPa | 987.1
283.15 K, 31682 kPa | 987.2
283.15 K, 31727 kPa | 987.1
283.15 K, 31781 kPa | 987.2
283.15 K, 31826 kPa | 987.2
283.15 K, 31872 kPa | 987.1
283.15 K, 31928 kPa | 987.2
283.15 K, 31976 kPa | 987.3
283.15 K, 32024 kPa | 987.3
283.15 K, 32078 kPa | 987.3
283.15 K, 32117 kPa | 987.3
283.15 K, 32155 kPa | 987.4
283.15 K, 32186 kPa | 987.4
283.15 K, 32232 kPa | 987.5
283.15 K, 32279 kPa | 987.3
283.15 K, 32317 kPa | 987.5
283.15 K, 32364 kPa | 987.6
283.15 K, 32402 kPa | 987.5
283.15 K, 32442 kPa | 987.6
283.15 K, 32488 kPa | 987.5
283.15 K, 32528 kPa | 987.5
283.15 K, 32567 kPa | 987.6
283.15 K, 32614 kPa | 987.6
283.15 K, 32653 kPa | 987.6
283.15 K, 32700 kPa | 987.7
283.15 K, 32740 kPa | 987.6
283.15 K, 32779 kPa | 987.7
283.15 K, 32819 kPa | 987.7
283.15 K, 32868 kPa | 987.8
283.15 K, 32908 kPa | 987.7
283.15 K, 32947 kPa | 987.7
283.15 K, 32996 kPa | 987.9
283.15 K, 33037 kPa | 987.8
283.15 K, 33127 kPa | 987.8
283.15 K, 33168 kPa | 987.9
283.15 K, 33209 kPa | 987.9
283.15 K, 33260 kPa | 987.8
283.15 K, 33301 kPa | 987.9
283.15 K, 33344 kPa | 988
283.15 K, 33396 kPa | 988
283.15 K, 33439 kPa | 988
283.15 K, 33492 kPa | 988.1
283.15 K, 33538 kPa | 988
283.15 K, 33585 kPa | 988.1
283.15 K, 33636 kPa | 988.2
283.15 K, 33684 kPa | 988.1
283.15 K, 33728 kPa | 988.1
283.15 K, 33754 kPa | 988.1
283.15 K, 33776 kPa | 988.2
283.15 K, 33797 kPa | 988.2
283.15 K, 33823 kPa | 988.2
283.15 K, 33845 kPa | 988.1
283.15 K, 33867 kPa | 988.2
283.15 K, 33889 kPa | 988.2
283.15 K, 33915 kPa | 988.4
283.15 K, 33937 kPa | 988.3
283.15 K, 33959 kPa | 988.3
283.15 K, 33986 kPa | 988.2
283.15 K, 34008 kPa | 988.3
283.15 K, 34126 kPa | 988.4
283.15 K, 34154 kPa | 988.4
283.15 K, 34177 kPa | 988.3
283.15 K, 34205 kPa | 988.4
283.15 K, 34229 kPa | 988.5
283.15 K, 34255 kPa | 988.4
283.15 K, 34282 kPa | 988.4
283.15 K, 34314 kPa | 988.4
283.15 K, 34342 kPa | 988.4
283.15 K, 34371 kPa | 988.6
283.15 K, 34402 kPa | 988.5
283.15 K, 34407 kPa | 988.5
283.15 K, 34408 kPa | 988.5
283.15 K, 34409 kPa | 988.5
283.15 K, 34410 kPa | 988.5
283.16 K, 5633.2 kPa | 973.4
283.16 K, 22751 kPa | 982.8
283.16 K, 22773 kPa | 982.7
283.16 K, 22795 kPa | 982.6
283.16 K, 33086 kPa | 987.8
283.16 K, 33707 kPa | 988.2
283.16 K, 34030 kPa | 988.3
283.16 K, 34053 kPa | 988.3
283.16 K, 34080 kPa | 988.4
283.16 K, 34103 kPa | 988.3
303.14 K, 3768.3 kPa | 957.8
303.14 K, 3783 kPa | 957.7
303.14 K, 3800.7 kPa | 957.8
303.14 K, 3818.7 kPa | 957.7
303.14 K, 3833.9 kPa | 957.8
303.14 K, 3852.1 kPa | 957.7
303.14 K, 3867.4 kPa | 957.7
303.14 K, 3885.9 kPa | 957.9
303.14 K, 3920.2 kPa | 957.8
303.14 K, 3936.3 kPa | 957.8
303.14 K, 3956 kPa | 957.8
303.14 K, 3973 kPa | 957.8
303.14 K, 3988.9 kPa | 958
303.14 K, 4008.8 kPa | 957.9
303.14 K, 4024.9 kPa | 957.8
303.14 K, 4044.7 kPa | 957.9
303.14 K, 4060.9 kPa | 958
303.14 K, 4081.2 kPa | 957.9
